# Tested on: class I antigen presentation gene expression in MCC cell lines
# Test: RNA-seq / DESeq2 differential expression of MCC cell lines at baseline and after IFN-γ stimulation
# Type: cell-based, human
# Conditions: 11 MCC cell lines, baseline vs IFNγ, negative LFC = upregulation in IFNγ-treated
# Method: FIG. 2A comprises RNA-seq heatmaps of class I antigen presentation gene expression in MCC lines and controls.
# FIG. 2B is a volcano plot of differentially expressed genes (genes below FDR cutoff 0.01 are shown in yellow) between baseline and IFN-γ-treated MCC cell lines. Differential expression analysis was performed using DESeq2, and negative LFC indicates increased expression in +IFN-γ samples. IFN genes are highlighted in red.
# RNA samples were first assessed for quality using the Agilent Bioanalyzer (DV200 metric). One hundred ng of RNA were used as the input for first strand cDNA synthesis using Superscript III reverse transcriptase and Illumina's TruSeq RNA Access Sample Prep Kit. Synthesis of the second strand of cDNA was followed by indexed adapter ligation with UMI (unique molecular index) adaptors. Subsequent PCR amplification enriched for adapted fragments. Amplified libraries were quantified, normalized, pooled, and hybridized with exome targeting oligos. Following hybridization, bead clean-up, elution and PCR was performed to prepare library pools for sequencing on Illumina flowcell lanes. Transcriptomes were sequenced to a coverage of at least 50 million reads in pairs.
# Raw fastq files for fibroblast and keratinocyte control lines were downloaded from SRA using R Bioconductor package SRAdb (Mayakonda et al. (2018) supra; Zhu et al. (2013) BMC Bioinformatics 14 (1): 1-4) using accession codes SRP126422 (4 replicates from control samples ‘NN’) and SRP131347 (6 replicates with condition: control and genotype: control). These fastq files, along with those for the mkl1 and waga cell lines, were aligned using STAR version 2.7.3a (Dobin et al. (2013) Bioinformatics 29 (1): 15-21), using index genome reference file downloaded from ftp.ebi.ac.uk/pub/databases/gencode/Gencode_human/release_19/GRCh37.p13.genome.fa.gz, transcript annotation file downloaded from data.broadinstitute.org/snowman/hg19/star/gencode.v19.annotation.gtf, and with the following options: --twopassMode Basic, --outSAMstrandField intronMotif, --alignIntronMax 1000000, --alignMatesGapMax 1000000, --sjdbScore 2, --outSAMtype BAM Unsorted, --outSAMattributes NH HI NM MD AS XS, --outFilterType BySJout, --outSAMunmapped Within, --genomeLoad NoSharedMemory, --outFilterScoreMinOverLread 0, --outFilterMatchNminOverLread 0, --outFilterMismatchNmax 999, and outFilterMultimapNmax 20. Duplicates were marked with picard MarkDuplicates version 2.22.0-SNAPSHOT.
# RNA-sequencing bam files for MCC tumor and cell line samples were downloaded from the Broad Genomics Firecloud/Terra platform using the Google Cloud Storage command line tool gsutil version 4.5 (github.com/GoogleCloudPlatform/gsutil/).
# Gene counts were obtained from bam files using featureCounts version 2.0.0 (doi.org/10.1093/bioinformatics/btt656). Very lowly expressed genes with average count across samples less than 1 were excluded from analysis. Between-sample distance metrics were computed using the Euclidean distance on the vectors of variance-stabilized counts obtained from the vst function in the DESeq2 R Bioconductor package ([…]; Love et al. (2014) Genome Biology 15 (12): 550).
# Differential expression analysis was carried out between (1) viral positive and viral negative samples (adjusting for cell line or tumor as a covariate), (2) cell line and tumor samples (adjusting for viral status as a covariate), and (3) IFNγ plus and minus samples (adjusting for viral status as a covariate) using the negative binomial GLM Wald test of DESeq2, where significance was assessed using the p-values adjusted for multiple comparisons under default settings. To account for potential global gene expression differences among sample groups, RUVg (Risso et al. (2014) […] 32 (9): 896-902) was used to estimate latent factors of unwanted variation from the list of housekeeping genes downloaded from www.tau.ac.il/˜elieis/HKG/HK_genes.txt. […]
substance,measurement,setting,value
"IFN-y: type II interferon, recombinant human, used to treat MCC cells",log2FoldChange PLCH1 (ENSG00000114805.12),,−3.192
same,log2FoldChange PLSCR1 (ENSG00000188313.8),,−1.918
same,log2FoldChange PSMA1 (ENSG00000129084.13),,−0.53
same,log2FoldChange PSMA5 (ENSG00000143106.8),,−0.7265
same,log2FoldChange PSMB8 (ENSG00000204264.4),,−4.624
same,log2FoldChange PSMB8-AS1 (ENSG00000204261.4),,−4.829
same,log2FoldChange PSMB9 (ENSG00000240065.3),,−8.037
same,log2FoldChange RAB19 (ENSG00000146955.6),,−3.348
same,log2FoldChange RALB (ENSG00000144118.9),,−1.199
same,log2FoldChange RARRES3 (ENSG00000133321.6),,−9.075
same,log2FoldChange RASGRP3 (ENSG00000152689.13),,−3.804
same,log2FoldChange RCN1 (ENSG00000049449.4),,−0.8151
same,log2FoldChange RNASET2 (ENSG00000026297.11),,−1.4
same,log2FoldChange RNF19B (ENSG00000116514.12),,−0.8512
same,log2FoldChange RPS6KA2-AS1 (ENSG00000231654.1),,−4.029
same,log2FoldChange RSAD2 (ENSG00000134321.7),,−4.639
same,log2FoldChange RTP4 (ENSG00000136514.2),,−9.766
same,log2FoldChange RUFY4 (ENSG00000188282.8),,−4.154
same,log2FoldChange SAMD9L (ENSG00000177409.7),,−9.221
same,log2FoldChange SCYL3 (ENSG00000000457.9),,−0.6381
same,log2FoldChange SERPING1 (ENSG00000149131.11),,−10.06
same,log2FoldChange SERPINI2 (ENSG00000114204.10),,−4.132
same,log2FoldChange SLC15A3 (ENSG00000110446.5),,−6.048
same,log2FoldChange SMCO3 (ENSG00000179256.2),,−4.85
same,log2FoldChange SP100 (ENSG00000067066.12),,−6.178
same,log2FoldChange SP110 (ENSG00000135899.12),,−5.912
same,log2FoldChange SP140 (ENSG00000079263.14),,−4.071
same,log2FoldChange SP140L (ENSG00000185404.12),,−4.749
same,log2FoldChange SPATA1 (ENSG00000122432.12),,−1.828
same,log2FoldChange SRD5A3-AS1 (ENSG00000249700.4),,−1.935
same,log2FoldChange STAT1 (ENSG00000115415.14),,−4.434
same,log2FoldChange STAT2 (ENSG00000170581.9),,−2.028
same,log2FoldChange SYNJ2 (ENSG00000078269.9),,−1.182
same,log2FoldChange TAP1 (ENSG00000168394.9),,−6.326
same,log2FoldChange TAP2 (ENSG00000204267.9),,−4.845
same,log2FoldChange TAPBP (ENSG00000231925.7),,−2.025
same,log2FoldChange TAPBPL (ENSG00000139192.7),,−2.548
same,log2FoldChange TCAF2 (ENSG00000170379.15),,−3.033
same,log2FoldChange TDRD7 (ENSG00000196116.6),,−0.8648
same,log2FoldChange TLR3 (ENSG00000164342.8),,−6.019
same,log2FoldChange TMEM108-AS1 (ENSG00000251011.1),,−3.649
same,log2FoldChange TMEM140 (ENSG00000146859.6),,−7.381
same,log2FoldChange TNFRSF14 (ENSG00000157873.13),,−3.995
same,log2FoldChange TNFSF10 (ENSG00000121858.6),,−4.43
same,log2FoldChange TRIM5 (ENSG00000132256.14),,−4.923
same,log2FoldChange TRIM21 (ENSG00000132109.8),,−5.586
same,log2FoldChange TRIM22 (ENSG00000132274.11),,−9.394
same,log2FoldChange TRIM26 (ENSG00000234127.4),,−0.6803
same,log2FoldChange TRIM56 (ENSG00000169871.8),,−2.411
same,log2FoldChange UBA7 (ENSG00000182179.6),,−5.004
same,log2FoldChange UBE2L6 (ENSG00000156587.11),,−4.982
same,log2FoldChange UBR2 (ENSG00000024048.6),,−0.9247
same,log2FoldChange USP33 (ENSG00000077254.10),,−0.3836
same,log2FoldChange USP42 (ENSG00000106346.7),,−0.5211
same,log2FoldChange WDR49 (ENSG00000174776.6),,−4.564
same,log2FoldChange ZC3HAV1 (ENSG00000105939.8),,−1.2
same,log2FoldChange,ACP5 ENSG00000102575.6,−3.911
same,log2FoldChange,B2M ENSG00000166710.13,−3.927
same,log2FoldChange,BCO1 ENSG00000135697.5,−3.705
same,log2FoldChange,BST2 ENSG00000130303.8,−9.567
same,log2FoldChange,C19orf38 ENSG00000214212.4,−2.581
same,log2FoldChange,C19orf66 ENSG00000130813.13,−3.602
same,log2FoldChange,CAPN3 ENSG00000092529.18,−1.639
same,log2FoldChange,CCDC194 ENSG00000269720.1,−5.08
same,log2FoldChange,CCL8 ENSG00000108700.4,−4.991
same,log2FoldChange,CCL25 ENSG00000131142.9,−5.742
same,log2FoldChange,CEACAM1 ENSG00000079385.17,−6.01
same,log2FoldChange,CIITA ENSG00000179583.13,−10.08
same,log2FoldChange,CX3CL1 ENSG00000006210.6,−2.039
same,log2FoldChange,DGLUCY ENSG00000133943.16,−1.417
same,log2FoldChange,DHX58 ENSG00000108771.8,−3.063
same,log2FoldChange,DLGAP1-AS5 ENSG00000261520.1,−7.006
same,log2FoldChange,DOCK9 ENSG00000088387.13,−1.102
same,log2FoldChange,DRAM1 ENSG00000136048.9,−2.646
same,log2FoldChange,ENSG00000225131.1 (symbol NA),−1.967
same,log2FoldChange,ENSG00000238045.5 (symbol NA),−1.974
same,log2FoldChange,ENSG00000238528.1 (symbol NA),−1.287
same,log2FoldChange,ENSG00000258733.1 (symbol NA),−3.393
